Patent publication US9199983B2, “3-aryl-6-aryl-[1,2,4]triazolo[4,3-α]pyridines as inhibitors of cell proliferation and the use thereof” (priority 2010, dated 2015)
Structures can show the parent of a compound that is named as a salt.

Tests used:
[1] = tested on: mouse melanoma cell line B16F10; assay: MTT cancer cell cytotoxicity assay, B16F10; format: cell-based; details: 48-72 h
Procedure: (§1) Identification of 3-(2-methoxyphenyl)-6-(4-methoxyphenyl)-[1,2,4]triazolo[4,3-a]pyridine and analogs as inhibitors of cell proliferation that were evaluated with standard MTT cancer cell cytotoxicity assay (IC50)
(§2) Human lung cancer cell line A549, breast cancer cell line T47D, liver cancer cell lines HepG2 and SMMC7721 as well as a mouse melanoma cell line B16F10 were used in the study. The cells were cultured in corresponding growth media recommended by American Type Culture Collection (ATCC) with the supplementation of penicillin G (100 U/ml)/streptomycin (100 µg/ml), and 10% fetal bovine serum (Hangzhou Sijiqing Biological Engineering Materials, Co., Ltd. China) at 37° C. in a humidified atmosphere containing 5% CO2. Cells at about 80% confluency were harvested by trypsinization. Cells were centrifuged, re-suspended in fresh growth media and counted. Corresponding numbers of cells were seeded to 96-well cell culture plates (HepG2 cell, T-47D and A549 cells at 3000 cells/well, SMMC-7721 cells at 5000 cells/well and B16F10 cells at 2000 cells/well) in a total volume of […]. Cells were incubated in CO2 incubator over night to allow the cells to attach. In next day, […] of medium containing testing (from 10 μM to 1 nM) or reference compounds was added to each well of the cells. Media without compound were used as 100% control. Cells were treated with each concentration of compounds in triplicates to ensure data accuracy. Cells were incubated with compounds in CO2 incubator for an additional 48-72 h at 37° C. After incubation, cells were removed from the CO2 incubator and […] of 5 mg/ml MTT (3-(4,5-dimethylthiazole-2-yl)-2,5-diphenyltetrazoliumbromide, Sigma) solution in PBS was added to each well. Cells were returned to CO2 incubator and incubated for additional 4 h. After the incubation, media were removed by aspiration and […] DMSO was added to each well. Plates were sealed with aluminum foil and shaked mildly on an orbital shaker for 10 min at room temperature. The absorption was measured at 550 nm with a plate reader (Varioskan Flash, Thermo Fisher Scientific) with 660 nm reading used as background control. The relative absorbance readings were calculated by subtracting readings at 660 nm from that at 550 nm. The relative absorbance was plotted again the concentrations of the testing compounds and the plots were fitted with a one-site lg(IC50) equation using Prism 5 software (GraphPad Software, Inc). The equation used in the curve fitting is as follows: relative absorbance reading=background reading+(maximal reading−brackground reading)/(1+10 ^(compound concentration-log IC50)). The background reading used in the calculation was obtained with 100% cell death using a reference anticancer drug, whereas the maximal reading was obtained in the well with no added compound. The IC50 value calculated from the equation represents the cytotoxic potency of a particular compound.

[2] = tested on: liver cancer cell line HepG2; assay: MTT cancer cell cytotoxicity assay, HepG2; format: cell-based, human; details: HepG2 cells, 48-72 h
Procedure: as §1, §2

[3] = tested on: breast cancer cell line T47D; assay: MTT cancer cell cytotoxicity assay, T47D; format: cell-based, human; details: T47D cells, 48-72 h
Procedure: as §1, §2

[4] = tested on: liver cancer cell line SMMC7721; assay: MTT cancer cell cytotoxicity assay, SMMC7721; format: cell-based, human; details: 48-72 h
Procedure: as §1, §2

[5] = tested on: Human lung cancer cell line A549; assay: MTT cancer cell cytotoxicity assay, A549; format: cell-based; details: A549 cells, 48-72 h
Procedure: as §1, §2

[6] = Mus musculus, B16-F10, B16F10 cells
[7] = Homo sapiens, SMMC-7721, SMMC7721 cells

Row | SMILES | IC50 [1, 6] [nM] | IC50 ([2]; Homo sapiens) [nM] | IC50 ([3]; Homo sapiens) [nM] | IC50 [4, 7] [nM] | IC50 ([5]; Homo sapiens) [nM] | IC50 ([1]; B16F10 cells) [nM] | IC50 [2] [nM] | IC50 [3] [nM] | IC50 ([4]; SMMC7721 cells) [nM] | IC50 [5] [nM]
1 | COc1cccc(-c2ccc3nnc(-c4ccccc4OC)n3c2)c1 [Example 2, 3-(2-Methoxyphenyl)-6-(3-methoxyphenyl)-[1,2,4]triazolo[4,3-a]pyridine] | 152 | 189 | 184 | 79 | 252 | – | – | – | – | –
2 | COc1ccccc1-c1ccc2nnc(-c3ccccc3OC)n2c1 [Example 3, 3,6-Bis(2-methoxyphenyl)-[1,2,4]triazolo[4,3-a]pyridine] | > 10000 | > 10000 | > 10000 | > 10000 | > 10000 | – | – | – | – | –
3 | COc1ccccc1-c1nnc2ccc(-c3ccc(OC(C)C)cc3)cn12 [Example 6, 6-(4-Isopropoxyphenyl)-3-(2-methoxyphenyl)-[1,2,4]triazolo[4,3-a]pyridine] | 591 | 1160 | 697 | 535 | 1060 | – | – | – | – | –
4 | CCc1ccc(-c2ccc3nnc(-c4ccccc4OC)n3c2)cc1 [Example 7, 6-(4-Ethylphenyl)-3-(2-methoxyphenyl)-[1,2,4]triazolo[4,3-a]pyridine] | 220 | 136 | 158 | 59 | 217 | – | – | – | – | –
5 | COc1ccccc1-c1nnc2ccc(-c3ccc(OC(F)(F)F)cc3)cn12 [Example 11, 3-(2-Methoxyphenyl)-6-(4-trifluoromethoxyphenyl)-[1,2,4]trizolo[4,3-a]pyridine] | – | – | – | – | – | 5000 | 5290 | > 10000 | 2910 | > 10000
6 | COc1ccccc1-c1nnc2ccc(-c3ccccc3)cn12 [Example 24, 3-(2-Methoxyphenyl)-6-phenyl-[1,2,4]triazolo[4,3-a]pyridine] | > 10000 | > 10000 | > 10000 | > 10000 | > 10000 | – | – | – | – | –
7 | COc1ccccc1-c1nnc2ccc(-c3ccc(C(F)(F)F)cc3)cn12 [Example 27, 3-(2-Methoxyphenyl)-6-(4-trifluoromethylphenyl)-[1,2,4]triazolo[4,3-a]pyridine] | 3820 | 2640 | 4260 | 2250 | 9630 | – | – | – | – | –
8 | CCCCCCOc1ccc(-c2ccc3nnc(-c4ccccc4OC)n3c2)cc1 [Example 34, 6-(4-Hexyloxyphenyl)-3-(2-methoxyphenyl)-[1,2,4]triazolo[4,3-a]pyridine] | > 10000 | > 10000 | > 10000 | > 10000 | > 10000 | – | – | – | – | –
9 | CCOc1ccc(-c2ccc3nnc(-c4ccccc4OC)n3c2)cc1 [Example 38, 6-(4-Ethoxyphenyl)-3-(2-methoxyphenyl)-[1,2,4]triazolo[4,3-a]pyridine] | 129 | 80 | 74 | 27 | 49 | – | – | – | – | –
10 | COc1ccccc1-c1nnc2ccc(-c3ccc([N+](=O)[O-])cc3)cn12 [Example 39, 3-(2-Methoxyphenyl)-6-(4-nitrophenyl)-[1,2,4]triazolo[4,3-a]pyridine] | > 10000 | 3250 | > 10000 | 5440 | 3000 | – | – | – | – | –
11 | COc1ccccc1-c1nnc2ccc(-c3ccc(OC)c([N+](=O)[O-])c3)cn12 [Example 40, 6-(4-Methoxy-3-nitrophenyl)-3-(2-methoxyphenyl)-[1,2,4]triazolo[4,3-a]pyridine] | > 10000 | 2460 | 896 | 72 | 2660 | – | – | – | – | –
12 | COc1ccc(-c2ccc3nnc(-c4ccccc4)n3c2)cc1 [Example 68, 6-(4-Methoxyphenyl)-3-phenyl-[1,2,4]triazolo[4,3-a]pyridine] | – | 5030 | 2940 | 755 | 7750 | – | – | – | – | –
13 | COc1ccc(-c2ccc3nnc(-c4cc(OC)c(OC)cc4OC)n3c2)cc1 [Example 69, 6-(4-Methoxyphenyl)-3-(2,4,5-trimethoxyphenyl)-[1,2,4]triazolo[4,3-a]pyridine] | – | 915 | 834 | 307 | 833 | – | – | – | – | –
14 | COc1ccc(-c2ccc3nnc(-c4ccc(OC)c(OC)c4OC)n3c2)cc1 [Example 72, 6-(4-Methoxyphenyl)-3-(2,3,4-trimethoxyphenyl)-[1,2,4]triazolo[4,3-a]pyridine] | – | > 10000 | 8160 | 4140 | > 10000 | – | – | – | – | –
15 | COc1ccc(-c2ccc3nnc(-c4cccc(OC)c4OC)n3c2)cc1 [Example 73, 3-(2,3-Dimethoxyphenyl)-6-(4-methoxyphenyl)-[1,2,4]triazolo[4,3-a]pyridine] | – | 2350 | 5320 | 3210 | > 10000 | – | – | – | – | –
16 | CCOc1ccccc1-c1nnc2ccc(-c3ccc(OC)cc3)cn12 [Example 74, 3-(2-Ethoxyphenyl)-6-(4-methoxyphenyl)-[1,2,4]triazolo[4,3-a]pyridine] | – | 141 | 151 | 38 | 146 | – | – | – | – | –
17 | COc1ccc(-c2ccc3nnc(-c4cc(S(N)(=O)=O)ccc4OC)n3c2)cc1 [Example 75, 6-(4-Methoxyphenyl)-3-(2-methoxy-5-sulfamoylphenyl)-[1,2,4]triazolo[4,3-a]pyridine] | – | > 10000 | > 10000 | > 10000 | > 10000 | – | – | – | – | –
18 | COc1ccc(-c2ccc3nnc(-c4cc(C)ccc4OC)n3c2)cc1 [Example 76, 3-(2-Methoxy-5-methylphenyl)-6-(4-methoxyphenyl)-[1,2,4]triazolo[4,3-a]pyridine] | – | 283 | 633 | 104 | 533 | – | – | – | – | –
19 | COc1ccc(-c2ccc3nnc(-c4cccc(OC)c4)n3c2)cc1 [Example 77, 3-(3-Methoxyphenyl)-6-(4-methoxyphenyl)-[1,2,4]triazolo[4,3-a]pyridine] | – | 2210 | 1950 | 962 | 4880 | – | – | – | – | –
20 | COc1ccc(-c2ccc3nnc(-c4ccccc4C)n3c2)cc1 [Example 78, 6-(4-Methoxyphenyl)-3-(2-methylphenyl)-[1,2,4]triazolo[4,3-a]pyridine] | – | 264 | 129 | 109 | 610 | – | – | – | – | –
21 | CNc1ccccc1-c1nnc2ccc(-c3ccc(OC)cc3)cn12 [Example 79, 6-(4-Methoxyphenyl)-3-(2-methylaminophenyl)-[1,2,4]triazolo[4,3-a]pyridine] | – | 122 | 73 | 69 | 167 | – | – | – | – | –
22 | COc1ccc(-c2ccc3nnc(-c4ccccc4N(C)C)n3c2)cc1 [Example 80, 3-(2-Dimethylaminophenyl)-6-(4-methoxyphenyl)-[1,2,4]triazolo[4,3-a]pyridine] | – | 81 | 62 | 35 | 118 | – | – | – | – | –
23 | COc1ccc(-c2ccc3nnc(-c4cccnc4Cl)n3c2)cc1 [Example 85, 3-(2-Chloropyridin-3-yl)-6-(4-methoxyphenyl)-[1,2,4]triazolo[4,3-a]pyridine] | – | 3870 | 4340 | 1890 | > 10000 | – | – | – | – | –
24 | COc1ccc(-c2ccc3nnc(-c4cccnc4OC)n3c2)cc1 [Example 86, 6-(4-Methoxyphenyl)-3-(2-methoxypyridin-3-yl)-[1,2,4]triazolo[4,3-a]pyridine] | – | 58 | 40 | 32 | 41 | – | – | – | – | –
25 | COc1ccc(-c2ccc3nnc(-c4ccc(N)cc4OC)n3c2)cc1 [Example 87, 3-(4-Amino-2-methoxyphenyl)-6-(4-methoxyphenyl)-[1,2,4]triazolo[4,3-a]pyridine hydrochloride] | – | 356 | 308 | 175 | 711 | – | – | – | – | –
